Measured values: patent US6399574B1 (priority 1997, dated 2002)
Where “and” joins values, the source holds several entries; their conditions need not be identical. Identical values can stand only once.

Columns and labels:
[1] = system: Frings audiogenic seizure-susceptible mice; conditions: mouse, in vivo
[2] = system: Frings audiogenic seizure susceptible mice; conditions: mouse, in vivo

Structure (SMILES)	toxicity (rotorod) [1]	animals protected [2]
NC(=O)OCC(COC(N)=O)c1ccccc1 [Felbamate, reference compound]	no marked	5/8 protected and 4/8 protected
CC1(C)O[C@@H]2[C@@H](CO[C@@]3(COS(N)(=O)=O)OC(C)(C)O[C@@H]23)O1 [Topiramate, reference compound]	no marked	–
